Data: the supplement of paper PMC10307832

Tests used:
Assay in all cases: relative viability (nuclei count vs DMSO), 5 days (fraction); higher = more cells survive
KIN001-266 + Luminespib = compound: CCN1CCC(CC1)N2C=C(N=N2)CNC3=CC4=C(C(=CN=C4C(=C3)Cl)C#N)NC5=CC(=C(C=C5)F)Cl [KIN001-266] + CCNC(=O)c1noc(-c2cc(C(C)C)c(O)cc2O)c1-c1ccc(CN2CCOCC2)cc1 [Luminespib] (partner 0.01 µM)
How it was run: (§1)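 Medians of duplicate plates are given as relative viability. That measure is the nuclei count in treated wells divided by the count in vehicle wells. Counts were taken on 4× images of lung cancer cell lines in 1536-well plates, 5 days after pin-tool dosing the day after seeding with one drug alone or a fixed anchor-drug dose plus five library-drug doses (not always all listed) in √10 steps.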

KIN001-266 + Lapatinib = compound: CCN1CCC(CC1)N2C=C(N=N2)CNC3=CC4=C(C(=CN=C4C(=C3)Cl)C#N)NC5=CC(=C(C=C5)F)Cl [KIN001-266] + CS(=O)(=O)CCNCc1ccc(-c2ccc3ncnc(Nc4ccc(OCc5cccc(F)c5)c(Cl)c4)c3c2)o1 [Lapatinib] (partner 2 µM)
How it was run: as §1

KIN001-266 + Decitabine = compound: CCN1CCC(CC1)N2C=C(N=N2)CNC3=CC4=C(C(=CN=C4C(=C3)Cl)C#N)NC5=CC(=C(C=C5)F)Cl [KIN001-266] + Nc1ncn([C@H]2C[C@H](O)[C@@H](CO)O2)c(=O)n1 [Decitabine] (partner 2 µM)
How it was run: as §1

KIN001-266 + Olaparib = compound: CCN1CCC(CC1)N2C=C(N=N2)CNC3=CC4=C(C(=CN=C4C(=C3)Cl)C#N)NC5=CC(=C(C=C5)F)Cl [KIN001-266] + O=C(c1cc(Cc2n[nH]c(=O)c3ccccc23)ccc1F)N1CCN(C(=O)C2CC2)CC1 [Olaparib] (partner 8 µM)
How it was run: as §1

Row | Cell Line | relative viability (KIN001-266 + Luminespib; first compound 0.08 µM) | relative viability (KIN001-266 + Luminespib; first compound 0.253 µM) | relative viability (KIN001-266 + Luminespib; first compound 0.8 µM) | relative viability (KIN001-266 + Luminespib; first compound 2.53 µM) | relative viability (KIN001-266 + Luminespib; first compound 8 µM) | relative viability (KIN001-266 + Lapatinib; first compound 0.08 µM) | relative viability (KIN001-266 + Lapatinib; first compound 0.253 µM) | relative viability (KIN001-266 + Lapatinib; first compound 0.8 µM) | relative viability (KIN001-266 + Lapatinib; first compound 2.53 µM) | relative viability (KIN001-266 + Lapatinib; first compound 8 µM) | relative viability (KIN001-266 + Decitabine; first compound 0.08 µM) | relative viability (KIN001-266 + Decitabine; first compound 0.253 µM) | relative viability (KIN001-266 + Decitabine; first compound 0.8 µM) | relative viability (KIN001-266 + Decitabine; first compound 2.53 µM) | relative viability (KIN001-266 + Decitabine; first compound 8 µM) | relative viability (KIN001-266 + Olaparib; first compound 0.08 µM) | relative viability (KIN001-266 + Olaparib; first compound 0.253 µM) | relative viability (KIN001-266 + Olaparib; first compound 0.8 µM) | relative viability (KIN001-266 + Olaparib; first compound 2.53 µM) | relative viability (KIN001-266 + Olaparib; first compound 8 µM)
1 | HCC-15 | 0.232 | 0.475 | 0.241 | 0.248 | 0.136 | 0.779 | 0.851 | 0.731 | 0.734 | 0.646 | 0.679 | 0.691 | 0.539 | 0.497 | 0.488 | 0.743 | 0.747 | 0.64 | 0.651 | 0.511
2 | NCI-H2170 | 0.704 | 0.801 | 0.675 | 0.739 | 0.568 | 0.29 | 0.268 | 0.266 | 0.247 | 0.255 | 0.47 | 0.437 | 0.457 | 0.436 | 0.414 | 0.634 | 0.548 | 0.541 | 0.515 | 0.416
3 | PC-3 [JPC-3] | 0.719 | 0.673 | 0.613 | 0.744 | 0.669 | 0.451 | 0.447 | 0.422 | 0.414 | 0.499 | 0.786 | 0.87 | 0.823 | 0.824 | 0.737 | 1.09 | 1.21 | 1.08 | 1.14 | 0.963
4 | NCI-H1993 | 0.872 | 1.02 | 0.705 | 0.736 | 0.533 | 0.896 | 0.775 | 0.841 | 0.793 | 0.746 | 0.66 | 0.563 | 0.415 | 0.579 | 0.607 | 1.04 | 0.937 | 1.16 | 0.887 | 0.73
5 | NCI-H358 | 0.496 | 0.251 | 0.237 | 0.306 | 0.123 | 0.493 | 0.497 | 0.483 | 0.407 | 0.372 | 0.209 | 0.219 | 0.197 | 0.212 | 0.173 | 0.6 | 0.556 | 0.58 | 0.458 | 0.325
6 | NCI-H1915 | 0.827 | 0.684 | 0.791 | 0.79 | 0.783 | 0.959 | 0.974 | 1.02 | 1.02 | 0.993 | 0.28 | 0.287 | 0.249 | 0.265 | 0.278 | 0.253 | 0.25 | 0.241 | 0.234 | 0.211
7 | RERF-LC-KJ | 1.31 | 1.23 | 1.14 | 1.16 | 0.739 | 0.871 | 0.828 | 0.817 | 0.857 | 0.781 | 0.744 | 0.777 | 0.767 | 0.64 | 0.497 | 0.974 | 0.952 | 0.858 | 0.762 | 0.649
8 | LOU-NH91 | 0.35 | 0.312 | 0.286 | 0.337 | 0.391 | 0.854 | 0.751 | 0.711 | 0.689 | 0.745 | 0.796 | 0.82 | 0.728 | 0.767 | 0.701 | 0.909 | 0.903 | 0.761 | 0.842 | 0.757
9 | NCI-H2347 | 0.846 | 0.009 | 0.41 | 0.358 | 0.269 | 0.952 | 0.956 | 0.925 | 0.915 | 0.51 | 0.64 | 0.643 | 0.56 | 0.622 | 0.458 | 0.619 | 0.593 | 0.507 | 0.568 | 0.479
10 | NCI-H2126 | 0.868 | 0.871 | 0.906 | 0.865 | 0.978 | 0.796 | 0.757 | 0.765 | 0.676 | 0.734 | 0.625 | 0.56 | 0.647 | 0.572 | 0.552 | 0.896 | 0.925 | 0.943 | 0.848 | 0.842
11 | HCC-827 | 0.659 | 0.38 | 0.509 | 0.841 | 0.362 | 0.2 | 0.18 |  | 0.191 | 0.217 | 0.327 | 0.382 | 0.153 | 0.28 | 0.268 | 0.577 | 0.602 | 0.557 | 0.585 | 0.528
12 | NCI-H3122 | 0.0939 | 0.0878 | 0.106 | 0.123 | 0.098 | 0.893 | 0.945 | 1.03 | 0.964 | 0.907 | 0.435 | 0.472 | 0.426 | 0.442 | 0.326 | 0.588 | 0.689 | 0.636 | 0.576 | 0.524
13 | HOP-62 | 0.906 | 0.923 | 0.876 | 0.944 | 0.787 | 0.944 | 0.801 | 1.13 | 0.815 | 1.09 | 0.224 | 0.215 | 0.287 | 0.204 | 0.217 | 0.5 | 0.475 | 0.381 | 0.46 | 0.319
14 | HCC-44 | 1.02 | 1.04 | 1.1 | 1.01 | 1.19 | 0.964 | 1.03 | 0.959 | 0.985 | 1.02 | 0.977 | 0.964 | 1.01 | 0.847 | 0.99 | 0.994 | 0.959 | 0.944 | 0.884 | 0.993
